{"source": "patent US20210000912A1", "about": "“Compositions And Methods For Prophylaxis Or Treatment Of Pain” (Interk Peptide Therapeutics Limited, priority 2017, published 2021)", "key": {"[1]": {"system": "nerve injured rats", "experiment": "Intrathecal testing in neuropathic pain model, von Frey paw withdrawal threshold", "assay_type": "in vivo, Sprague-Dawley rats", "details": "administered intrathecally, on a molar basis", "protocol": "Experiments were performed on male Sprague-Dawley rats weighing 300-400 g at the start of experiments. Animals were housed 2 or 3 per cage until cannula surgery, after which time they were singly housed for 4 days until the day of experiment. Animals were maintained on standard 12-h light/dark cycle with food and water available ad libitum.\nAfter baseline von Frey measures were taken, animals underwent partial nerve ligation (PNL) surgery, as previously described (Seltzer, Z., Dubner, R., Shir, Y., 1990. A novel behavioural-model of neuropathic pain disorders produced in rats by partial sciatic-nerve injury. Pain 43, 205-218). Briefly, animals were deeply anaesthetised using isoflurane (2.0-2.5% in oxygen), and the sciatic nerve of the left hind-leg was exposed via blunt dissection of the biceps femoris at a site near the trochanter, just distal to the posterior biceps semitendinosus nerve branches of the common sciatic nerve. A 6-0 silk suture was used to tightly ligate the dorsal 30-50% of the nerve. […]\nMechanical paw withdrawal threshold (PWT) was measured using a series of von Frey hairs with bending pressures ranging from 0.41 to 15.1 g. […] The mechanical PWT was calculated using the up-down paradigm (Dixon, W. J., 1980. Efficient analysis of experimental-observations. Annual Review of Pharmacology and Toxicology 20, 441-462). […]"}, "[2]": {"experiment": "Resistance to simulated gastric fluid", "assay_type": "in vitro ADME", "protocol": "Test 14 Arg peptides consisting of 14 contiguous L- or D-arginine amino acids were tested for resistance to simulated gastric fluid (porcine pepsin in a HCl and NaCl solution) at a pH of 2.01 for a period of 24 hours. Negligible degradation of each peptide was observed by exposure to the simulated gastric fluid over the 24 hour test period."}, "[3]": {"system": "CFA-injected mice", "experiment": "CFA inflammatory pain model, incapacitance testing"}, "[4]": {"system": "CFA-injected mice", "experiment": "Grip strength testing in CFA study", "assay_type": "in vivo, C57Bl/6 mice", "protocol": "Forepaw grip strength was determined using a grip strength meter (DFIS-2 series digital force gauge, Columbus Instruments, Columbus, Ohio). The animals' forelimbs were placed on a horizontal bar connected to a force gauge. The animal was the gently pulled away from the bar and the peak force required for a release was recorded. Each mouse was tested 3 times, with a 1 min inter-trial interval (Martinez-Huenchullan, S. F., et al., “Utility and reliability of non-invasive muscle function tests in high-fat-fed mice”. Experimental Physiology, 2017. 102(7): p. 773-778). The average peak tension (g), and tension normalised to body weight were compared."}}, "data": [{"compound": "N=C(N)NCCC[C@H](NC(=O)[C@H](CCCNC(=N)N)NC(=O)[C@H](CCCNC(=N)N)NC(=O)[C@H](CCCNC(=N)N)NC(=O)[C@H](CCCNC(=N)N)NC(=O)[C@H](CCCNC(=N)N)NC(=O)[C@H](CCCNC(=N)N)NC(=O)[C@H](CCCNC(=N)N)NC(=O)[C@H](CCCNC(=N)N)NC(=O)[C@H](CCCNC(=N)N)NC(=O)[C@H](CCCNC(=N)N)NC(=O)[C@H](CCCNC(=N)N)NC(=O)[C@H](CCCNC(=N)N)NC(=O)[C@@H](N)CCCNC(=N)N)C(N)=O", "note": "[IK01400, RRRRRRRRRRRRRR-NH2]", "values": [{"measurement": "alleviating neuropathic pain (ipsilateral von Frey PWT) compared to morphine", "setting": "[1]", "value": "more effective in alleviating neuropathic pain than morphine on a molar basis"}, {"measurement": "remaining at 1 h", "setting": "[2]; pig, simulated gastric fluid with porcine pepsin, simulated gastric fluid pH 2.01, 1 hr, read-out: % of intact peptide observed", "value": 99.5, "unit": "%"}, {"measurement": "remaining at 4 h", "setting": "[2]; pig, simulated gastric fluid with porcine pepsin, simulated gastric fluid pH 2.01, 4 hrs, read-out: % of intact peptide observed", "value": 98.5, "unit": "%"}, {"measurement": "remaining at 24 h", "setting": "[2]; pig, simulated gastric fluid with porcine pepsin, simulated gastric fluid pH 2.01, 24 hrs, read-out: % of intact peptide observed", "value": 98.2, "unit": "%"}, {"measurement": "% of intact peptide observed", "setting": "[2]; simulated gastric fluid pH 2.01, time 0", "value": 98.51, "unit": "%"}, {"measurement": "alleviation of inflammatory pain", "setting": "[3]; mice, both doses of the peptide employed", "value": "alleviated pain"}, {"measurement": "hyperactivity", "setting": "[3]; mice, intra-peritoneal", "value": "no hyperactivity was observed"}, {"measurement": "time at which peak effect was reached following administration", "setting": "[3]; mice, intra-peritoneal", "value": "> 1", "unit": "h"}, {"measurement": "effectiveness in incapacitance test, morphine versus IK01400 (8.6 mg/kg)", "setting": "[3]; second hour after administration", "value": "more effective than morphine"}, {"measurement": "alertness of animals", "setting": "[4]; all time points", "value": "alert at all time points"}, {"measurement": "grip strength compared to vehicle control", "setting": "[4]; intra-peritoneal, CFA study", "value": "no difference"}]}]}
